# Assay results published in patent US20250051277A1, “DELIVERY OF THERAPEUTIC ALKALOID COMPOUNDS” (Sensorium Therapeutics, Inc., priority 2021, published 2025).
# Where two headings read alike, the source gives them in different places.
# Assays:
# [1] = Hydrolysis Assay of Example A1 (conversion by LCMS); type: physicochemical; settings: pH = 2.0, 25° C., 0.5 mM, 0.01M HCl; 0-48 h
# Method: The hydrolysis kinetics was under a certain temperature and measured by LCMS at a certain time interval. The corresponding LCMS chromatograms were recorded and the conversions were calculated. The hydrolysis conditions and the data were summarized in below table. LCMS spectra were obtained using Agilent 1200/G1956A or SHIMADZU LCMS-2020. Standard LCMS conditions were as follows (running time 1.55 minutes): • Acidic condition: Mobile Phase A: 0.0375% TFA in water (v/v). Mobile Phase B: 0.01875% TFA in acetonitrile (v/v); Column: Kinetex EVO C18 30*2.1 mm, 5 μm. • Basic condition: Mobile Phase A: 0.025% NH3·H2O in water (v/v). Mobile Phase B: Acetonitrile; Column: Kinetex EVO C18 2.1×30 mm, 5 μm. • Conversion (%)=peak area 1/(peak area 1+peak area 2)*100%, peak area 1 is the integration of hydrolyzed product, peak area 2 is the integration of starting material.
# [2] = type: physicochemical; settings: SGF with pepsin, pH 1.5, 37° C., 0.5 mM
# [3] = type: physicochemical; settings: DI water, 25° C., 0.5 mM
# [4] = Plasma Stability Assay of Example A4, rat plasma; settings: 37° C., 10 μM
# Method: (§1) 50 μL aliquots of positive controls and test compounds spiked into rat or human plasma (n=2) were added to a pre-warmed plate (37° C.) and shaken at 50 rpm. At each respective time point, the reaction was stopped by adding 500 μL of acetonitrile containing internal standards (100 nM aprozolam, 200 nM caffeine, 100 nM tolbutamide). All samples were vortexed for 10 minutes, followed by centrifugation at 3,220 g for 30 minutes to precipitate proteins. 100 μL of the supernatant is transferred to a new plate. The supernatant will be diluted with ultrapure water according to the LC-MS signal response and peak shape.
# [5] = Plasma Stability Assay of Example A4, human plasma; settings: 37° C., 10 μM
# Method: as §1
# [6] = 5 μM
# [7] = 5 μM; remark: listed apart in the source
# [8] = 10 μM
# Method: as §1
# [9] = 10 μM; remark: listed apart in the source
# Method: as §1
# [10] = Plasma Stability Assay of Example A3, mouse plasma; settings: 5 μM, 37° C., % of prodrug compound remaining
# [11] = Plasma Stability Assay of Example A3, human plasma; settings: 5 μM, 37° C., % of prodrug compound remaining
smiles,measurement,setting,value
"COc1ccc([C@@]23CCC(OC(C)=O)=C[C@@H]2N(C)CC3)cc1OC [Compound 026, [(3aS,7aS)-3a-(3,4-dimethoxyphenyl)-1-methyl-3,4,5,7a-tetrahydro-2H-indol-6-yl]acetate]",Conversion (%),[1],0%
same,Notes (hydrolysis),[1],Stable;
same,Condition 1 Conversion (%),[2]; time 1 min,0%
same,Condition 1 Conversion (%),[2]; time 5 min,0%
same,Condition 1 Conversion (%),[2]; time 30 min,0%
same,Condition 1 Conversion (%),[2]; time 1 h,0%
same,Condition 1 Conversion (%),[2]; time 4 h,0%
same,Condition 1 Conversion (%),[2]; time 24 h,0%
same,Condition 2 Conversion (%),[3]; time 1 min,0%
same,Condition 2 Conversion (%),[3]; time 5 min,0%
same,Condition 2 Conversion (%),[3]; time 30 min,0%
same,Condition 2 Conversion (%),[3]; time 1 h,0%
same,Condition 2 Conversion (%),[3]; time 4 h,0%
same,Condition 2 Conversion (%),[3]; time 24 h,0%
same,"Compound 001 (%) (metabolite mesembrine), Rat Plasma",[4]; time 0.0 min,96.2%
same,"Prodrug (%) remaining, Rat Plasma",[4]; time 0.0 min,100.0%
same,"Compound 001 (%) (metabolite mesembrine), Rat Plasma",[4]; time 10 min,>99%
same,"Prodrug (%) remaining, Rat Plasma",[4]; time 10 min,0.0%
same,"Compound 001 (%) (metabolite mesembrine), Rat Plasma",[4]; time 30 min,>99%
same,"Prodrug (%) remaining, Rat Plasma",[4]; time 30 min,0.0%
same,"Compound 001 (%) (metabolite mesembrine), Rat Plasma",[4]; time 60 min,>99%
same,"Prodrug (%) remaining, Rat Plasma",[4]; time 60 min,0.0%
same,"Compound 001 (%) (metabolite mesembrine), Rat Plasma",[4]; time 120 min,>99%
same,"Prodrug (%) remaining, Rat Plasma",[4]; time 120 min,0.0%
same,"Compound 001 (%) (metabolite mesembrine), Rat Plasma",[4]; time 240 min,>99%
same,"Prodrug (%) remaining, Rat Plasma",[4]; time 240 min,0.0%
same,"Compound 001 (%) (metabolite mesembrine), Human Plasma",[5]; time 0.0 min,>99%
same,"Prodrug (%) remaining, Human Plasma",[5]; time 0.0 min,100.0%
same,"Compound 001 (%) (metabolite mesembrine), Human Plasma",[5]; time 10 min,>99%
same,"Prodrug (%) remaining, Human Plasma",[5]; time 10 min,40.3%
same,"Compound 001 (%) (metabolite mesembrine), Human Plasma",[5]; time 30 min,>99%
same,"Prodrug (%) remaining, Human Plasma",[5]; time 30 min,23.5%
same,"Compound 001 (%) (metabolite mesembrine), Human Plasma",[5]; time 60 min,>99%
same,"Prodrug (%) remaining, Human Plasma",[5]; time 60 min,12.0%
same,"Compound 001 (%) (metabolite mesembrine), Human Plasma",[5]; time 120 min,>99%
same,"Prodrug (%) remaining, Human Plasma",[5]; time 120 min,3.4%
same,"Compound 001 (%) (metabolite mesembrine), Human Plasma",[5]; time 240 min,>99%
same,"Prodrug (%) remaining, Human Plasma",[5]; time 240 min,0.8%
"COc1ccc([C@@]23CCC(=NNC(=O)Nc4ccc(C(=O)O)cc4)C[C@@H]2N(C)CC3)cc1OC (racemic) [Compound 259, 4-[[[(3aS,7aS)-3a-(3,4-dimethoxyphenyl)-1-methyl-2,3,4,5,7,7a-hexahydroindol-6-ylidene]amino]carbamoylamino]benzoic acid]",Condition 1 Conversion (%),[2]; time 1 min,3.6%
same,Condition 1 Conversion (%),[2]; time 5 min,4.1%
same,Condition 1 Conversion (%),[2]; time 30 min,16.5%
same,Condition 1 Conversion (%),[2]; time 1 h,25%
same,Condition 1 Conversion (%),[2]; time 4 h,29.5%
same,Condition 1 Conversion (%),[2]; time 24 h,31.9%
same,Condition 2 Conversion (%),[3]; time 1 min,0%
same,Condition 2 Conversion (%),[3]; time 5 min,0%
same,Condition 2 Conversion (%),[3]; time 30 min,0%
same,Condition 2 Conversion (%),[3]; time 1 h,2%
same,Condition 2 Conversion (%),[3]; time 4 h,4.3%
same,Condition 2 Conversion (%),[3]; time 24 h,7.8%
same,Mouse Plasma Prodrug (%),[6]; 0 min,100%
same,Mouse Plasma Prodrug (%),[6]; 15 min,86.2%
same,Mouse Plasma Prodrug (%),[6]; 30 min,81.0%
same,Mouse Plasma Prodrug (%),[6]; 60 min,67.6%
same,Mouse Plasma Prodrug (%),[6]; 120 min,38.7%
same,Mouse Plasma Prodrug (%),[6]; 240 min,19.8%
same,Human Plasma Prodrug (%),[7]; 0 min,100%
same,Human Plasma Prodrug (%),[7]; 15 min,>99%
same,Human Plasma Prodrug (%),[7]; 30 min,96.6%
same,Human Plasma Prodrug (%),[7]; 60 min,85.7%
same,Human Plasma Prodrug (%),[7]; 120 min,70.0%
same,Human Plasma Prodrug (%),[7]; 240 min,54.3%
"COc1ccc([C@@]23CCC(OC(=O)c4ccc(C(C)C)cc4)=C[C@@H]2N(C)CC3)cc1OC [Compound 371, (3aS,7aS)-3a-(3,4-dimethoxyphenyl)-1-methyl-2,3,3a,4,5,7a-hexahydro-1H-indol-6-yl4-isopropylbenzoate]",Mouse Plasma Compound 001 (%),[6]; 0 min,28.4%
same,Mouse Plasma Compound 001 (%),[6]; 15 min,31.54%
same,Mouse Plasma Compound 001 (%),[6]; 30 min,29.63%
same,Mouse Plasma Compound 001 (%),[6]; 60 min,30.25%
same,Mouse Plasma Compound 001 (%),[6]; 120 min,26.59%
same,Mouse Plasma Compound 001 (%),[6]; 240 min,19.82%
same,Human Plasma Compound 001 (%),[7]; 0 min,0.00%
same,Human Plasma Compound 001 (%),[7]; 60 min,2.67%
same,Human Plasma Compound 001 (%),[7]; 120 min,5.08%
same,Human Plasma Compound 001 (%),[7]; 240 min,3.85%
same,"Prodrug (%) remaining, Rat Plasma",[8]; 0 h,100.0%
same,"Prodrug (%) remaining, Rat Plasma",[8]; 10 min,5.0%
same,"Prodrug (%) remaining, Rat Plasma",[8]; 0.5 h,0.2%
same,"Prodrug (%) remaining, Rat Plasma",[8]; 1 h,0.1%
same,"Prodrug (%) remaining, Rat Plasma",[8]; 2 h,0.0%
same,"Prodrug (%) remaining, Rat Plasma",[8]; 4 h,0.0%
same,"Prodrug (%) remaining, Human Plasma",[9]; 0 h,100.0%
same,"Prodrug (%) remaining, Human Plasma",[9]; 10 min,>99%
same,"Prodrug (%) remaining, Human Plasma",[9]; 0.5 h,94.4%
same,"Prodrug (%) remaining, Human Plasma",[9]; 1 h,90.7%
same,"Prodrug (%) remaining, Human Plasma",[9]; 2 h,91.3%
same,"Prodrug (%) remaining, Human Plasma",[9]; 4 h,78.0%
same,Mouse Plasma Prodrug (%),[10]; 0 min,100%
same,Mouse Plasma Prodrug (%),[10]; 15 min,10%
same,Mouse Plasma Prodrug (%),[10]; 30 min,0%
same,Mouse Plasma Prodrug (%),[10]; 60 min,0%
same,Mouse Plasma Prodrug (%),[10]; 120 min,0%
same,Mouse Plasma Prodrug (%),[10]; 240 min,0%
same,Human Plasma Prodrug (%),[11]; 0 min,100%
same,Human Plasma Prodrug (%),[11]; 15 min,99%
same,Human Plasma Prodrug (%),[11]; 30 min,92%
same,Human Plasma Prodrug (%),[11]; 60 min,87%
same,Human Plasma Prodrug (%),[11]; 120 min,78%
same,Human Plasma Prodrug (%),[11]; 240 min,27%
"COc1ccc([C@@]23CCC(OC(=O)c4c(C)cccc4C)=C[C@@H]2N(C)CC3)cc1OC [Compound 372, (3aS,7aS)-3a-(3,4-dimethoxyphenyl)-1-methyl-2,3,3a,4,5,7a-hexahydro-1H-indol-6-yl2,6-dimethylbenzoate]",Mouse Plasma Compound 001 (%),[6]; 0 min,0%
same,Human Plasma Compound 001 (%),[7]; 0 min,0.00%
same,"Prodrug (%) remaining, Rat Plasma",[8]; 0 h,100.0%
same,"Prodrug (%) remaining, Rat Plasma",[8]; 10 min,>99%
same,"Prodrug (%) remaining, Rat Plasma",[8]; 0.5 h,>99%
same,"Prodrug (%) remaining, Rat Plasma",[8]; 1 h,>99%
same,"Prodrug (%) remaining, Rat Plasma",[8]; 2 h,98.4%
same,"Prodrug (%) remaining, Rat Plasma",[8]; 4 h,>99%
same,"Prodrug (%) remaining, Human Plasma",[9]; 0 h,100.0%
same,"Prodrug (%) remaining, Human Plasma",[9]; 10 min,>99%
same,"Prodrug (%) remaining, Human Plasma",[9]; 0.5 h,>99%
same,"Prodrug (%) remaining, Human Plasma",[9]; 1 h,>99%
same,"Prodrug (%) remaining, Human Plasma",[9]; 2 h,>99%
same,"Prodrug (%) remaining, Human Plasma",[9]; 4 h,>99%
same,Mouse Plasma Prodrug (%),[10]; 0 min,100%
same,Mouse Plasma Prodrug (%),[10]; 15 min,92%
same,Mouse Plasma Prodrug (%),[10]; 30 min,91%
same,Mouse Plasma Prodrug (%),[10]; 60 min,88%
same,Mouse Plasma Prodrug (%),[10]; 120 min,73%
same,Mouse Plasma Prodrug (%),[10]; 240 min,64%
same,Human Plasma Prodrug (%),[11]; 0 min,100%
same,Human Plasma Prodrug (%),[11]; 15 min,97%
same,Human Plasma Prodrug (%),[11]; 30 min,99%
same,Human Plasma Prodrug (%),[11]; 60 min,94%
same,Human Plasma Prodrug (%),[11]; 120 min,81%
same,Human Plasma Prodrug (%),[11]; 240 min,38%
